Assay results from patent US20160222014A1, “COMPOUNDS FOR REGULATING FAK AND/OR SRC PATHWAYS” (ASANA BIOSCIENCES, LLC, priority 2013, published 2016).

Experiments:
recombinant human FAK1 = target: T1, recombinant human FAK1 (Homo sapiens, UniProt Q05397); assay: FAK1 HTRF assay; assay type: biochemical
T1 construct: fused on or other part: N-terminal 6xHis tag
Outline: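 IC50 values derive from HTRF % inhibition (ratio 665/620 nm, Eu–anti-phosphotyrosine 0.1 nM, SA-APC 12 nM). The kinase step ran 45 min at room temperature, pairing 10 nM His-FAK1(692–end) from baculovirus with 0.5 μM gastrin Tyr87 biotin-peptide and a reagent at 10 μM final, pH 7.4. Compound dilutions began at 10 μM.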

[1] = target: T2, FAK phosphorylated at Y397 in HEK-FAK cell line overexpressing human FL FAK protein (Homo sapiens, UniProt Q05397); assay: Cell based assay, Phospho-FAK ELISA; conditions: HEK stb; read-out: pFAK EC50 (μM) HEK stb
T2 construct: expressed in transfected cells
Source text: D. Cell Based Assay-Phospho-FAK ELISA
The DuoSet IC ELISA (R&D systems—Cat no. DYC4528-5) provided the basic components required for the development of sandwich ELISAs to measure Focal Adhesion Kinase 1 (FAK) phosphorylated at Y397 in cell lysates. An immobilized capture antibody specific for FAK, also known as PTK2, binds both phosphorylated and unphosphorylated protein. After washing away unbound material, a biotinylated detection antibody specific for FAK phosphorylated at Y397 was used to detect only phosphorylated protein, utilizing a standard Streptavidin-HRP format. The cell line used for the assay was a stable HEK-FAK cell line overexpressing human FL FAK protein, which was generated as follows.
HEK293 cells (ATCC® CRL-1573™, 10801 University Boulevard, Manassas, Va. 20110 USA) were seeded in four 100 mm petri dishes at a seeding density of 1.5×10^6 cells per plate and incubated overnight at 37° C. in a 5% CO2 incubator. The transfection mix was prepared as follows. (A) 10 μg DNA (pCDNA4 V5/HisA vector containing Zeocin as mammalian selection marker, procured from Invitrogen) with the full length human FAK gene represented by the nucleotide sequence provided in NCBI Reference Sequence: NM_153831.3, SEQ ID NO: 1:
was added to 1.5 mL Opti-MEM® (reduced serum media is a modification of Eagle's Minimum Essential Media, buffered with HEPES and sodium bicarbonate and supplemented with hypoxanthine, thymidine, sodium pyruvate, L-glutamine, trace elements and growth factors commercially available from Invitrogen) and incubated at room temperature for 5 minutes. (B) 30 μL Lipofectamine™ Transfection reagent (Life Technologies) was added to 1.5 mL Opti-MEM® and incubated at room temperature for 5 minutes. Following this, (a) and (b) were mixed and incubated at room temperature for 20 minutes. Media was removed from cells and washed with 1× phosphate buffered saline (PBS) and the transfection mix prepared above was mixed with 3 mL of Opti-MEM®, added to the cells and incubated at 37° C. Four hours later, 6 mL of 20% Dulbecco's Modified Eagle Medium (DMEM) was added to the plates and incubated at 37° C. in a 5% CO2 incubator. Approximately 72 hours after transfection, cells were subcultured at various dilutions with fresh medium containing 0.8 mg/mL Zeocin™ (Life Technologies). Cells were replenished with selective medium every 3-4 days until cell foci were identified in the FAK transfected cells and most of the cells died in the control plates. Cells from these foci were grown in the presence of selective media and the expression of FAK was confirmed by Western Blotting. Over expression of FAK in the stably-transfected cells was quantified in the cell-based ELISA assay described below by determining the signal window, with a signal window of 2 or above considered to be robust). The HEK-FAK stable cell line thus was maintained in 0.8 mg/mL Zeocin™ (Life Technologies) and used in cell-based ELISA to assess autophosphorylation of FAK.
(i) Materials • 1. Phospho-FAK (Y397)-Capture Antibody • 2. Phospho-FAK (Y397)-Detection Antibody • 3. Streptavidin-HRP • 4. Cells used for the assay-HEK over expressing human FL FAK protein
(ii) Solutions • PBS—137 mM NaCl, 2.7 mM KCl, 8.1 mM Na2HPO4, 1.5 mM KH2PO4, pH 7.2-7.4, 0.2 μm filtered. • Wash Buffer—0.05% Tween20™ in PBS, pH 7.2-7.4 • Block Buffer—1% BSA, 0.05% NaN3, in PBS, pH 7.2-7.4. • IC Diluent #1-1% BSA in PBS, pH 7.2-7.4, 0.2 μm filtered. • IC Diluent #8-1 mM EDTA, 0.5% Triton™ X-100, 5 mM NaF in PBS, pH 7.2-7.4. IC Diluent #8 was also the base buffer for IC Diluent #3, IC Diluent #7, and Lysis. • Buffer #6. […]

Recombinant Src enzyme = target: T3, Recombinant Src enzyme (Homo sapiens, UniProt P12931); assay: Src HTRF assay; assay type: biochemical
T3 construct: purchased Millipore 14-326; host or cells: Sf21 insect cells
Outline: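 Run as for the FAK HTRF assay (same buffer, supplements, compound preparation and procedure), with dasatinib included. Reaction contained 0.5 μM biotin-tagged Tyk2 synthetic peptide, 5 nM Src made in Sf21 cells, and a pH7.4-buffer-prepared component at 10 μM final.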

AURKB (Aurora B) enzyme = target: T4, AURKB (Aurora B) enzyme (Homo sapiens, UniProt Q96GD4); assay: Aurora B HTRF assay; assay type: biochemical; conditions: read-out: AuroraB IC50
T4 construct: purchased Invitrogen PVR 130
Outline: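 Enzyme (5 nM final) and ULight-labelled PLK Ser137 peptide (50 nM) reacted 1 h at room temperature; a 30 μM final component was also present. Detection used EDTA-containing buffer with europium anti-phospho-PLK(Ser137) antibody at 2 nM, 1 h, then time-resolved FRET readout.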

T2 sequence (Q05397 whole entry): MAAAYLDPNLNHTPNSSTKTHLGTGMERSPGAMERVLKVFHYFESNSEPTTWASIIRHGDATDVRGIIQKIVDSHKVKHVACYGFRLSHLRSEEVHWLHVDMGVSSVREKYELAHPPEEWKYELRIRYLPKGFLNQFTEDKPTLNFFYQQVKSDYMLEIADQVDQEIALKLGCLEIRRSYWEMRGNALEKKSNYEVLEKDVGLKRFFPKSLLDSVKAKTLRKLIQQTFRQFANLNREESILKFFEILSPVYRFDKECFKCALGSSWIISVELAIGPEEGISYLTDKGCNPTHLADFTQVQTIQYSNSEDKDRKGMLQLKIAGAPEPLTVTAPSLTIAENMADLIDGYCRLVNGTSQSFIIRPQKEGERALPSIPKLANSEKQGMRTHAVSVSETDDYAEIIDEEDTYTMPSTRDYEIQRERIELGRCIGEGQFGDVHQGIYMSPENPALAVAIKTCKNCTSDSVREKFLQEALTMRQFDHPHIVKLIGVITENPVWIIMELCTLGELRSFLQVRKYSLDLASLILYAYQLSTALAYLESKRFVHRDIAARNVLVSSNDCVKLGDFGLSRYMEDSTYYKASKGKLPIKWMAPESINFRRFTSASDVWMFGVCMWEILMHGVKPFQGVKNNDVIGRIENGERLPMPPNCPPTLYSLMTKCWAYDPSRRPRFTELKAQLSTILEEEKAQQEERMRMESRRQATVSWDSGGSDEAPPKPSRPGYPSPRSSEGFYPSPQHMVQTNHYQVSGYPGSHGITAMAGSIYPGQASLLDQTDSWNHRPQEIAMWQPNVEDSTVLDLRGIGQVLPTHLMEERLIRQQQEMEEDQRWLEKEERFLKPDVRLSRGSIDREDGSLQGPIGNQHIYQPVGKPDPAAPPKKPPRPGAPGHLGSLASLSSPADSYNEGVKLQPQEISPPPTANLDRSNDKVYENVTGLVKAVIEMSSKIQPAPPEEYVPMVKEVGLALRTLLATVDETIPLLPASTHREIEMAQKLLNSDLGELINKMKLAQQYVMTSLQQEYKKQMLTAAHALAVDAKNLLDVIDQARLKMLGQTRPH
T1 sequence (Q05397 422-680 limits assumed): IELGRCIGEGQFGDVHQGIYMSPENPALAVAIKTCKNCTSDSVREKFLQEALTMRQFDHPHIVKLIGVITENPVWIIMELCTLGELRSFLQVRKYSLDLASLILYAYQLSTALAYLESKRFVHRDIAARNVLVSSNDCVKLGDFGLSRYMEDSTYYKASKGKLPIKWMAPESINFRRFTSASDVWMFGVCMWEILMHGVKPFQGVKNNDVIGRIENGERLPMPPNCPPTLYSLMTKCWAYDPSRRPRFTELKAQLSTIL
T3 sequence (P12931 whole entry): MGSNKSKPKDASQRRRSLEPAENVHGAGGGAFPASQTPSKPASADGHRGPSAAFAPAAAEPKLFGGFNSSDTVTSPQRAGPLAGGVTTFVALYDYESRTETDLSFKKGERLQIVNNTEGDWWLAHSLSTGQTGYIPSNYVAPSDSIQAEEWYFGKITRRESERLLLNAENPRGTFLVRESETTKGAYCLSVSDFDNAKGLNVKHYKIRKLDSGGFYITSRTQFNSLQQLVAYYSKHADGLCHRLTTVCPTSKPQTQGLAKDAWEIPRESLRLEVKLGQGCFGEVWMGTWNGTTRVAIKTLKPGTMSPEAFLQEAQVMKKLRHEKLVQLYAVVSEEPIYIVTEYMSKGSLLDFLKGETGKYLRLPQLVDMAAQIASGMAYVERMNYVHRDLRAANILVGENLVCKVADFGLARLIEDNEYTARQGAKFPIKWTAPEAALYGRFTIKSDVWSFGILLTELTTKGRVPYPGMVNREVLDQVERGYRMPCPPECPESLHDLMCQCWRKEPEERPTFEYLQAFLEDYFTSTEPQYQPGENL
T4 sequence (Q96GD4 whole entry): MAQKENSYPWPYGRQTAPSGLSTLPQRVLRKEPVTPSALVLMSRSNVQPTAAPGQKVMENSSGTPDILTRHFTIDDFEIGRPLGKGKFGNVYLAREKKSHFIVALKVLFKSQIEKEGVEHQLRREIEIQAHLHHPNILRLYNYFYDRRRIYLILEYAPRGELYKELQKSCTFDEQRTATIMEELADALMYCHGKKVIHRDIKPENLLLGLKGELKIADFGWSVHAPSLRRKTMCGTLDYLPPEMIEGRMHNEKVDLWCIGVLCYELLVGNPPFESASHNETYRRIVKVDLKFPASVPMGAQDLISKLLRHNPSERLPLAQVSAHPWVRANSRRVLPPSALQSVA

SMILES | IC50 (recombinant human FAK1) [nM] | EC50 [1] [µM] | IC50 (Recombinant Src enzyme) [nM] | IC50 (AURKB (Aurora B) enzyme) [nM]
COc1cc(N2CCNCC2)ccc1Nc1ncc2ccn(S(=O)(=O)c3cccc4ccc(C)nc34)c2n1 [Example 365] |  | > 1 | > 1000 | 
Cc1ccc2cccc(S(=O)(=O)n3ccc4cnc(Nc5ccc(N6CCNCC6)cc5)cc43)c2n1 [Example 369] |  | > 1 | > 1000 | < 20
CN(c1ncccc1Cn1ccc2cnc(Nc3ccc(N4CC5CC4CN5)cc3)cc21)S(C)(=O)=O (stereo not shown) [Example 371] |  | > 1 | > 1000 | 
COc1cc(Nc2ncc3ccn(S(=O)(=O)c4cccc5cccnc45)c3n2)cc(OC)c1OC [Example 392] |  | > 1 |  | < 20
CN(c1ncccc1Cn1ccc2cnc(Nc3ccc(N4CCOCC4)cc3)cc21)S(C)(=O)=O [Example 397] |  | > 1 | > 1000 | 
N#Cc1ccccc1S(=O)(=O)n1ncc2cnc(Nc3ccc(N4CCN(CCO)CC4)cc3)cc21 [Example 419] |  | > 1 | > 1000 | 
CN(c1ncccc1CN1c2nc(Nc3ccc(N4CCNCC4)cc3)ncc2C(C)(C)C1O)S(C)(=O)=O (stereo not shown) [Example 455] |  | > 1 | > 1000 | 
C[C@@H]1CNCCN1c1ccc(Nc2cc3c(ccn3S(=O)(=O)c3ccccc3C#N)cn2)cc1 [Example 479] |  | > 1 |  | < 20
COc1cc(C(=O)N2CCOCC2)c(F)cc1Nc1ncc2ccn(Cc3ccccc3N(C)S(C)(=O)=O)c2n1 [Example 512] |  | > 1 | > 1000 | 
N#Cc1ccccc1S(=O)(=O)n1ccc2cnc(Nc3ccc4c(c3)CC(=O)N4)cc21 [Example 514] | < 20 | > 1 | > 1000 | 
CS(=O)(=O)Nc1ccccc1Cn1ccc2cnc(Nc3ccc(N4CCNCC4)cc3)nc21 [Example 519] |  | > 1 | < 20 | 
CC1(C)CN(c2ccccn2)c2nc(Nc3ccc(N4CCNCC4)cc3)ncc21 [Example 534] |  | > 1 |  | > 1000
CN(c1ccccc1Cn1ccc2cnc(Nc3ccc(N4CCNCC4=O)cc3)nc21)S(C)(=O)=O [Example 550] | < 20 | > 1 |  | < 20
CN(c1ccccc1Cn1ccc2cnc(Nc3ccc(-n4ccccc4=O)cc3)nc21)S(C)(=O)=O [Example 576] |  | > 1 | > 1000 | 
CN(c1ncccc1Cn1ccc2cnc(Nc3ccc4c(c3)CC(=O)N4CCO)nc21)S(C)(=O)=O [Example 615] |  | > 1 |  | < 20
CN(C)C1CN(c2ccc(Nc3cc4c(ccn4S(=O)(=O)c4ccccc4C#N)cn3)cc2)C1 [Example 623] |  | > 1 | > 1000 | 
CC1(C)CN(S(=O)(=O)c2cccc3cccnc23)c2nc(Nc3ccc(N4CCN(CC(=O)O)CC4)cc3)ncc21 [Example 699] |  | > 1 | > 1000 | 
COc1cccc(N(C)S(C)(=O)=O)c1Cn1ccc2cnc(Nc3ccc(N4CCN[C@@H](C)C4)cc3)nc21 [Example 701] |  | > 1 | > 1000 | 
CNC1CCN(c2ccc(Nc3ncc4c(n3)N(S(=O)(=O)c3cccc5ccccc35)CC4(C)C)cc2)CC1 [Example 707] |  | > 1 | > 1000 | 
CN(C)C1CCN(c2ccc(Nc3ncc4c(n3)N(S(=O)(=O)c3cccc5ccccc35)CC4(C)C)cc2)CC1 [Example 755] |  | > 1 | > 1000 | 

More lines, now with the values ahead:

IC50 (recombinant human FAK1) [nM] | EC50 [1] [µM] | IC50 (Recombinant Src enzyme) [nM] | IC50 (AURKB (Aurora B) enzyme) [nM] | SMILES
< 20 | > 1 | > 1000 |  | CN(c1ncccc1Cn1ccc2cnc(Nc3ccc4[nH]cc(C5=CCNCC5)c4c3)nc21)S(C)(=O)=O [Example 152]
< 20 | < 0.02 |  | < 20 | COc1cc(Nc2ncc3ccn(S(=O)(=O)c4cccc5cccnc45)c3n2)ccc1N1CCNCC1 [Example 198]
< 20 | > 1 | < 20 |  | CN(c1ncccc1Cn1ccc2cnc(Nc3ccc4c(c3)NCCO4)nc21)S(C)(=O)=O [Example 215]
 | > 1 | < 20 |  | Cc1cc(Nc2ncc3ccn(S(=O)(=O)c4cccs4)c3n2)ccc1N1CCNCC1 [Example 229]
 | > 1 | < 20 | < 20 | O=S(=O)(c1ccccc1Cl)n1ccc2cnc(Nc3ccc(N4CCNCC4)cc3)nc21 [Example 232]
 | > 1 |  | < 20 | C[C@H]1CN(c2ccc(Nc3ncc4ccn(S(=O)(=O)c5ccccc5C#N)c4n3)cc2)CCN1 [Example 242]
 | > 1 | < 20 | < 20 | N#Cc1ccccc1S(=O)(=O)n1ccc2cnc(Nc3ccc(N4CCNCC4)c(F)c3)nc21 [Example 245]
< 20 | < 0.02 |  | < 20 | O=S(=O)(c1cccc2cccnc12)n1ccc2cnc(Nc3ccc(CN4CCCC(CO)C4)cc3)nc21 (stereo not shown) [Example 247]
 | > 1 | > 1000 | < 20 | COc1ccccc1S(=O)(=O)n1ncc2cnc(Nc3ccc(N4CCNCC4)cc3)cc21 [Example 342]
 | > 1 |  | < 20 | COc1ccccc1S(=O)(=O)N1CCc2cnc(Nc3ccc(N4CCNCC4)cc3)nc21 [Example 344]
 | > 1 | > 1000 |  | Cn1cc(Nc2cc3c(cn2)cnn3S(=O)(=O)c2cccc3cccnc23)cn1 [Example 349]
 | > 1 |  | < 20 | O=S(=O)(c1cccc2cccnc12)n1ccc2cnc(Nc3cnn(C4CCNCC4)c3)nc21 [Example 355]
< 20 | < 0.02 | > 1000 |  | COc1cc(N2CCN(CCO)CC2)ccc1Nc1cc2c(ccn2S(=O)(=O)c2cccc3cccnc23)cn1 [Example 386]
< 20 | < 0.02 | > 1000 |  | COc1cc(N2CCN(CCO)CC2)ccc1Nc1cc2c(cn1)cnn2S(=O)(=O)c1cccc2cccnc12 [Example 387]
< 20 | < 0.02 | > 1000 |  | COc1cc(N2CCC(O)CC2)ccc1Nc1cc2c(ccn2S(=O)(=O)c2cccc3cccnc23)cn1 [Example 400]
< 20 | < 0.02 | > 1000 |  | COCCN1CCN(c2ccc(Nc3cc4c(ccn4S(=O)(=O)c4cccc5cccnc45)cn3)c(OC)c2)CC1 [Example 444]
< 20 | < 0.02 | > 1000 |  | COc1cc(N2CCN(CCOC(C)=O)CC2)ccc1Nc1cc2c(ccn2S(=O)(=O)c2cccc3cccnc23)cn1 [Example 451]
< 20 | < 0.02 |  |  | COc1ccc(N(C)S(C)(=O)=O)c(Cn2ccc3cnc(Nc4ccc(N5CCC(N(C)C)CC5)cc4)nc32)c1 [Example 706]
